# Measurements from patent US11298333B1, “Methods of reducing the risk of cardiovascular events in a subject” (Amarin Pharmaceuticals Ireland Limited, priority 2018, dated 2022).
# System: hypertriglyceridemic patients with cardiovascular disease or at high risk for cardiovascular disease
# Test: REDUCE-IT: safety, treatment-emergent adverse events (incl. bleeding and gastrointestinal TEAEs)
# [1] = gastrointestinal TEAE, Safety population N = 4089
# [2] = gastrointestinal TEAE, number of patients, Safety population N = 4089
# [3] = most frequent TEAEs (≥5%), N = 4089
# [4] = no significant increase vs placebo
# [5] = serious bleeding TEAE by preferred term, N = 4089
# [6] = serious bleeding TEAE by preferred term, number of patients, N = 4089
# [7] = serious bleeding TEAE, N = 4089
# [8] = serious bleeding TEAE, number of patients, N = 4089
# [9] = significantly higher than placebo
# Description: Specification of Variables and Procedures: Safety assessments included adverse events, clinical laboratory measurements (chemistry, hematology), 12-lead ECGs, vital signs (systolic and diastolic blood pressure, heart rate, respiratory rate, and body temperature), weight, waist circumference, and physical examinations as per Study Procedures in Table 1. […] All laboratory test results were evaluated by the investigator as to their clinical significance. Any observations at physical examinations or laboratory values considered by the investigator to be clinically significant were considered an adverse event.
# An adverse event can therefore be any unfavorable and/or unintended sign (including an abnormal laboratory finding), symptom, or disease temporally associated with the use of an investigational medication product, whether or not related to the investigational medication product. All adverse events, including observed or volunteered problems, complaints, or symptoms, were recorded on the appropriate CRF. Each adverse event was evaluated for duration, intensity, and causal relationship with the study medication or other factors.
# Serious Adverse Events: A serious adverse event (SAE) is defined as an adverse event that meets any of the following criteria: • Results in death; • Is life-threatening—The term “life-threatening” in the definition of “serious” refers to an event in which the patient was at risk of death at the time of the event. […] Important medical events that may not result in death, be life threatening, or require hospitalization were considered an SAE when, based upon appropriate medical judgment, they may have jeopardized the patient and may have required medical or surgical intervention to prevent one of the outcomes listed above.
# Adverse Events of Special Interest: Bleeding-related adverse events, glucose control (fasting blood glucose and HbA1c), and indicators of hepatic disorders (e.g., ALT or AST increases >3×ULN, total bilirubin increases of ≥2×ULN) were summarized separately and compared between treatment groups.
# Analysis of Safety: All analyses of safety were conducted on the safety population, which was defined as all randomized patients. The safety assessment was based on the frequency of adverse events, physical exams, vital signs and safety laboratory tests. AEs with new onset during the study between the initiation of study drug and 30 days after the last dose of study drug for each patient was considered treatment-emergent (TEAEs). This included any AE with onset prior to initiation of study drug and increased severity after the treatment initiation.
# This included overall incidence rates (regardless of severity and relationship to study drug), and incidence rates for moderate or severe adverse events. A summary of SAEs and adverse events leading to early discontinuation (for ≥30 days) were presented through data listings. Patients who restarted study drug were included in the summary of AEs leading to discontinuation. Safety laboratory tests and vital signs were summarized by post-treatment change from baseline for each of the parameters using descriptive statistics by treatment group. Those patients with significant laboratory abnormalities were identified in data listings. Additional safety parameters were summarized in data listings.
compound,measurement,setting,value
"CC/C=C\C/C=C\C/C=C\C/C=C\C/C=C\CCCC(=O)OCC [Icosapent Ethyl, eicosapentaenoic acid ethyl ester]",Overall adverse event rates compared with placebo,4 grams daily,similar
same,Positively Adjudicated Atrial Fibrillation/Flutter (hospitalization),N = 4089,127 (3.1%) n (%)
same,Serious TEAE (≥2%) Pneumonia,N = 4089,105 (2.6%) n (%)
same,Serious TEAE,Safety population N = 4089,1252 (30.6%) n (%)
same,Serious TEAE Leading to Death,Safety population N = 4089,94 (2.3%) n (%)
same,Serious TEAE Leading to Withdrawal of Study Drug,Safety population N = 4089,88 (2.2%) n (%)
same,Serious bleeding TEAE: Bleeding related disorders,Safety population N = 4089,111 (2.7%) n (%)
same,Serious bleeding TEAE: Central nervous system bleeding,Safety population N = 4089,14 (0.3%) n (%)
same,Serious bleeding TEAE: Gastrointestinal bleeding,Safety population N = 4089,62 (1.5%) n (%)
same,Serious bleeding TEAE: Other bleeding,Safety population N = 4089,41 (1.0%) n (%)
same,Subjects with at Least One TEAE,Safety population N = 4089,3343 (81.8%) n (%)
same,TEAE Leading to Withdrawal of Study Drug,Safety population N = 4089,321 (7.9%) n (%)
same,"Constipation (TEAE), percentage of patients",[1],(5.4%)
same,"Diarrhea (TEAE), percentage of patients",[1],(9.0%)
same,"Gastroesophageal Reflux Disease (TEAE), percentage of patients",[1],(3.0%)
same,"Gastrointestinal disorders (TEAE), percentage of patients",[1],(33.0%)
same,"Nausea (TEAE), percentage of patients",[1],(4.6%)
same,"Constipation (TEAE), patients",[2],221
same,"Diarrhea (TEAE), patients",[2],367
same,"Gastroesophageal Reflux Disease (TEAE), patients",[2],124
same,"Gastrointestinal disorders (TEAE), patients",[2],1350
same,"Nausea (TEAE), patients",[2],190
same,"Treatment-emergent serious adverse events for bleeding, rate",in vivo,2.7%
same,Rate of anemia (adverse event),lower than placebo,4.7%
same,Rate of diarrhea (adverse event),lower than placebo,9%
same,Rate of gastrointestinal adverse events,lower than placebo,33.0%
same,TEAE Anemia,[3],191 (4.7%) n (%)
same,TEAE Angina pectoris,[3],200 (4.9%) n (%)
same,TEAE Arthralgia,[3],313 (7.7%) n (%)
same,TEAE Atrial fibrillation,[3],215 (5.3%) n (%)
same,TEAE Back pain,[3],335 (8.2%) n (%)
same,TEAE Bronchitis,[3],306 (7.5%) n (%)
same,TEAE Cataract,[3],233 (5.7%) n (%)
same,TEAE Chest pain,[3],273 (6.7%) n (%)
same,TEAE Constipation,[3],221 (5.4%) n (%)
same,TEAE Cough,[3],241 (5.9%) n (%)
same,TEAE Diarrhea,[3],367 (9.0%) n (%)
same,TEAE Dizziness,[3],235 (5.7%) n (%)
same,TEAE Dyspnea,[3],254 (6.2%) n (%)
same,TEAE Fatigue,[3],228 (5.6%) n (%)
same,TEAE Hypertension,[3],320 (7.8%) n (%)
same,TEAE Influenza,[3],263 (6.4%) n (%)
same,TEAE Nasopharyngitis,[3],314 (7.7%) n (%)
same,TEAE Osteoarthritis,[3],241 (5.9%) n (%)
same,TEAE Pain in extremity,[3],235 (5.7%) n (%)
same,TEAE Peripheral edema,[3],267 (6.5%) n (%)
same,TEAE Pneumonia,[3],263 (6.4%) n (%)
same,Tolerability,no significant difference in rates of serious adverse events versus placebo,well tolerated
same,"Serious central nervous system bleeding, rate",[4],0.3%
same,"Serious gastrointestinal bleeding, rate",[4],1.5%
same,"Serious adverse event pneumonia, rate",only serious adverse event at frequency ≥2%,2.6%
same,"Aortic Aneurysm Rupture, percentage",[5],(0.0%)
same,"Brain Contusion, percentage",[5],(0.0%)
same,"Catheter Site Hemorrhage, percentage",[5],(0.0%)
same,"Cerebral Hemorrhage, percentage",[5],(0.0%)
same,"Cystitis Hemorrhagic, percentage",[5],(0.0%)
same,"Diverticulitis Intestinal Hemorrhagic, percentage",[5],(0.0%)
same,"Diverticulum Intestinal Hemorrhagic, percentage",[5],(0.1%)
same,"Duodenal Ulcer Hemorrhage, percentage",[5],(0.0%)
same,"Ecchymosis, percentage",[5],(0.0%)
same,"Epistaxis, percentage",[5],(0.2%)
same,"Esophageal Hemorrhage, percentage",[5],(0.0%)
same,"Extravasation Blood, percentage",[5],(0.0%)
same,"Gastric Hemorrhage, percentage",[5],(0.0%)
same,"Gastric Ulcer Hemorrhage, percentage",[5],(0.1%)
same,"Gastrointestinal Angiodysplasia Hemorrhagic, percentage",[5],(0.0%)
same,"Gastrointestinal Hemorrhage, percentage",[5],(0.6%)
same,"Genital Hemorrhage, percentage",[5],(0.0%)
same,"Hemarthrosis, percentage",[5],(0.0%)
same,"Hematemesis, percentage",[5],(0.1%)
same,"Hematochezia, percentage",[5],(0.0%)
same,"Hematoma, percentage",[5],(0.0%)
same,"Hematuria, percentage",[5],(0.2%)
same,"Hemoptysis, percentage",[5],(0.0%)
same,"Hemorrhagic Anemia, percentage",[5],(0.1%)
same,"Hemorrhagic Duodenitis, percentage",[5],(0.0%)
same,"Hemorrhagic Transformation Stroke, percentage",[5],(0.0%)
same,"Hemorrhoidal Hemorrhage, percentage",[5],(0.1%)
same,"Hemothorax, percentage",[5],(0.0%)
same,"Immune Thrombocytopenic Purpura, percentage",[5],(0.0%)
same,"Intra-Abdominal Hemorrhage, percentage",[5],(0.0%)
same,"Intracranial Hemorrhage, percentage",[5],(0.0%)
same,"Large Intestinal Hemorrhage, percentage",[5],(0.0%)
same,"Lower Gastrointestinal Hemorrhage, percentage",[5],(0.1%)
same,"Mallory-Weiss Syndrome, percentage",[5],(0.0%)
same,"Melaena, percentage",[5],(0.1%)
same,"Menorrhagia, percentage",[5],(0.0%)
same,"Mouth Hemorrhage, percentage",[5],(0.0%)
same,"Pancreatitis Hemorrhagic, percentage",[5],(0.0%)
same,"Peptic Ulcer Hemorrhage, percentage",[5],(0.0%)
same,"Pericardial Hemorrhage, percentage",[5],(0.0%)
same,"Post Procedural Hematoma, percentage",[5],(0.0%)
same,"Post Procedural Hematuria, percentage",[5],(0.0%)
same,"Post Procedural Hemorrhage, percentage",[5],(0.1%)
same,"Rectal Hemorrhage, percentage",[5],(0.2%)
same,"Renal Hemorrhage, percentage",[5],(0.0%)
same,"Retinal Hemorrhage, percentage",[5],(0.0%)
same,"Retroperitoneal Hematoma, percentage",[5],(0.0%)
same,"Retroperitoneal Hemorrhage, percentage",[5],(0.0%)
same,"Shock Hemorrhagic, percentage",[5],(0.0%)
same,"Subarachnoid Hemorrhage, percentage",[5],(0.0%)
same,"Subdural Hematoma, percentage",[5],(0.2%)
same,"Subdural Hemorrhage, percentage",[5],(0.0%)
same,"Traumatic Hematoma, percentage",[5],(0.0%)
same,"Traumatic Intracranial Hemorrhage, percentage",[5],(0.0%)
same,"Ulcer Hemorrhage, percentage",[5],(0.0%)
same,"Upper Gastrointestinal Hemorrhage, percentage",[5],(0.1%)
same,"Urinary Bladder Hemorrhage, percentage",[5],(0.0%)
same,"Aortic Aneurysm Rupture, patients",[6],1
same,"Brain Contusion, patients",[6],0
same,"Catheter Site Hemorrhage, patients",[6],0
same,"Cerebral Hemorrhage, patients",[6],0
same,"Cystitis Hemorrhagic, patients",[6],2
same,"Diverticulitis Intestinal Hemorrhagic, patients",[6],0
same,"Diverticulum Intestinal Hemorrhagic, patients",[6],3
same,"Duodenal Ulcer Hemorrhage, patients",[6],2
same,"Ecchymosis, patients",[6],1
same,"Epistaxis, patients",[6],7
same,"Esophageal Hemorrhage, patients",[6],0
same,"Extravasation Blood, patients",[6],1
same,"Gastric Hemorrhage, patients",[6],1
same,"Gastric Ulcer Hemorrhage, patients",[6],3
same,"Gastrointestinal Angiodysplasia Hemorrhagic, patients",[6],1
same,"Gastrointestinal Hemorrhage, patients",[6],26
same,"Genital Hemorrhage, patients",[6],1
same,"Hemarthrosis, patients",[6],0
same,"Hematemesis, patients",[6],3
same,"Hematochezia, patients",[6],1
same,"Hematoma, patients",[6],1
same,"Hematuria, patients",[6],8
same,"Hemoptysis, patients",[6],1
same,"Hemorrhagic Anemia, patients",[6],4
same,"Hemorrhagic Duodenitis, patients",[6],0
same,"Hemorrhagic Transformation Stroke, patients",[6],1
same,"Hemorrhoidal Hemorrhage, patients",[6],3
same,"Hemothorax, patients",[6],1
same,"Immune Thrombocytopenic Purpura, patients",[6],0
same,"Intra-Abdominal Hemorrhage, patients",[6],1
same,"Intracranial Hemorrhage, patients",[6],0
same,"Large Intestinal Hemorrhage, patients",[6],1
same,"Lower Gastrointestinal Hemorrhage, patients",[6],5
same,"Mallory-Weiss Syndrome, patients",[6],1
same,"Melaena, patients",[6],3
same,"Menorrhagia, patients",[6],1
same,"Mouth Hemorrhage, patients",[6],0
same,"Pancreatitis Hemorrhagic, patients",[6],1
same,"Peptic Ulcer Hemorrhage, patients",[6],1
same,"Pericardial Hemorrhage, patients",[6],0
same,"Post Procedural Hematoma, patients",[6],1
same,"Post Procedural Hematuria, patients",[6],0
same,"Post Procedural Hemorrhage, patients",[6],5
same,"Rectal Hemorrhage, patients",[6],10
same,"Renal Hemorrhage, patients",[6],0
same,"Retinal Hemorrhage, patients",[6],1
same,"Retroperitoneal Hematoma, patients",[6],0
same,"Retroperitoneal Hemorrhage, patients",[6],1
same,"Shock Hemorrhagic, patients",[6],2
same,"Subarachnoid Hemorrhage, patients",[6],2
same,"Subdural Hematoma, patients",[6],9
same,"Subdural Hemorrhage, patients",[6],2
same,"Traumatic Hematoma, patients",[6],2
same,"Traumatic Intracranial Hemorrhage, patients",[6],0
same,"Ulcer Hemorrhage, patients",[6],1
same,"Upper Gastrointestinal Hemorrhage, patients",[6],3
same,"Urinary Bladder Hemorrhage, patients",[6],1
same,"Central Nervous System Bleeding (category), percentage",[7],(0.3%)
same,"Gastrointestinal Bleeding (category), percentage",[7],(1.5%)
same,"Other Bleeding (category), percentage",[7],(1.0%)
same,"Patients with Bleeding-Related Disorders, percentage",[7],(2.7%)
same,"Central Nervous System Bleeding (category), patients",[8],14
same,"Gastrointestinal Bleeding (category), patients",[8],62
same,"Other Bleeding (category), patients",[8],41
same,"Patients with Bleeding-Related Disorders, patients",[8],111
same,Rate of atrial fibrillation (adverse event),[9],5.3%
same,Rate of peripheral edema (adverse event),[9],6.5%
